Laboratory results published in PubChem BioAssay (NCI).
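Cultured in 96-well plates, cells were exposed to test compound for 48 hours across five concentrations. Here, GI50 denotes the concentration required for 50% inhibition of growth. TGI: total growth inhibition.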

What was measured:
Experiment in all cases: NCI anticancer screen, dose series, 48 h
EKVX NSCLC = tested on: EKVX NSCLC
BT-549 breast = tested on: BT-549 breast
HOP-62 NSCLC = tested on: HOP-62 NSCLC
HCT-116 colon = tested on: HCT-116 colon
SF-539 CNS = tested on: SF-539 CNS
SNB-19 CNS = tested on: SNB-19 CNS
HS 578T breast = tested on: HS 578T breast
DMS 114 small cell lung = tested on: DMS 114 small cell lung
HOP-92 NSCLC = tested on: HOP-92 NSCLC
CAKI-1 renal = tested on: CAKI-1 renal
MOLT-4 leukemia = tested on: MOLT-4 leukemia
HCT-15 colon = tested on: HCT-15 colon
NCI-H23 lung = tested on: NCI-H23 lung
HT29 colon = tested on: HT29 colon
MDA-MB-231 breast = tested on: MDA-MB-231 breast
LOX IMVI melanoma = tested on: LOX IMVI melanoma
IGROV1 ovarian = tested on: IGROV1 ovarian
HCC-2998 colon = tested on: HCC-2998 colon
MALME-3M melanoma = tested on: MALME-3M melanoma
CCRF-CEM leukemia = tested on: CCRF-CEM leukemia
KM20L2 colon = tested on: KM20L2 colon
SF-295 CNS = tested on: SF-295 CNS
U251 CNS = tested on: U251 CNS
786-0 renal = tested on: 786-0 renal
OVCAR-8 ovarian = tested on: OVCAR-8 ovarian
SR leukemia = tested on: SR leukemia
NCI-H226 lung = tested on: NCI-H226 lung
DMS 273 small cell lung = tested on: DMS 273 small cell lung
SF-268 CNS = tested on: SF-268 CNS
LXFL 529 NSCLC = tested on: LXFL 529 NSCLC
T-47D breast = tested on: T-47D breast
SNB-75 CNS = tested on: SNB-75 CNS
UACC-257 melanoma = tested on: UACC-257 melanoma
M14 melanoma = tested on: M14 melanoma
COLO 205 colon = tested on: COLO 205 colon
K-562 leukemia = tested on: K-562 leukemia
PC-3 prostate = tested on: PC-3 prostate
SW-620 colon = tested on: SW-620 colon
NCI/ADR-RES ovarian = tested on: NCI/ADR-RES ovarian
ACHN renal = tested on: ACHN renal
MDA-MB-435 = tested on: MDA-MB-435
SK-MEL-28 melanoma = tested on: SK-MEL-28 melanoma
DLD-1 colon = tested on: DLD-1 colon
M19-MEL melanoma = tested on: M19-MEL melanoma
A549 NSCLC = tested on: A549 NSCLC
DU-145 prostate = tested on: DU-145 prostate
OVCAR-4 ovarian = tested on: OVCAR-4 ovarian
OVCAR-5 ovarian = tested on: OVCAR-5 ovarian

`C[CH2][Sn]([CH2]C)([O]C(=O)c1cccc(OC)c1)[O][Sn]([CH2]C)([CH2]C)[O]C(=O)c1cccc(OC)c1` gave a GI50 (EKVX NSCLC) of over 40.8 µM, a TGI (EKVX NSCLC) of over 55.6 µM and a GI50 (BT-549 breast) of 15.4 µM. The TGI (BT-549 breast) was 29.4 µM, the GI50 (HOP-62 NSCLC) was over 58.2 µM and the TGI (HOP-62 NSCLC) was over 100 µM. The GI50 (HCT-116 colon) was over 43.2 µM, the TGI (HCT-116 colon) was over 58.8 µM and the GI50 (SF-539 CNS) was 16.4 µM. It also gave a TGI (SF-539 CNS) of 30.4 µM, a GI50 (SNB-19 CNS) of 23.1 µM and a TGI (SNB-19 CNS) of 57.1 µM. It also gave a GI50 (HS 578T breast) of 29.3 µM, a TGI (HS 578T breast) of over 100 µM and a GI50 (DMS 114 small cell lung) of 15.9 µM. The TGI (DMS 114 small cell lung) was 30.1 µM, the GI50 (HOP-92 NSCLC) was 15 µM and the TGI (HOP-92 NSCLC) was 29.8 µM. For the same compound, the GI50 (CAKI-1 renal) was 11.8 µM, the TGI (CAKI-1 renal) was 24.3 µM and the GI50 (MOLT-4 leukemia) was 27.9 µM. For the same compound, the TGI (MOLT-4 leukemia) was over 72.4 µM, the GI50 (HCT-15 colon) was 17.4 µM and the TGI (HCT-15 colon) was 35.4 µM. The GI50 (NCI-H23 lung) was 17.6 µM, the TGI (NCI-H23 lung) was 36.2 µM and the GI50 (HT29 colon) was 33.2 µM. The TGI (HT29 colon) was over 100 µM, the GI50 (MDA-MB-231 breast) was 16 µM and the TGI (MDA-MB-231 breast) was 33.5 µM. The GI50 (LOX IMVI melanoma) was 11.4 µM, the TGI (LOX IMVI melanoma) was 25.9 µM and the GI50 (IGROV1 ovarian) was over 100 µM. The TGI (IGROV1 ovarian) was over 100 µM, the GI50 (HCC-2998 colon) was over 76 µM and the TGI (HCC-2998 colon) was over 100 µM. The GI50 (MALME-3M melanoma) was 15 µM, the TGI (MALME-3M melanoma) was 30.4 µM and the GI50 (CCRF-CEM leukemia) was 3.17 µM. For the same compound, the TGI (CCRF-CEM leukemia) was 17.7 µM, the GI50 (KM20L2 colon) was 43.6 µM and the TGI (KM20L2 colon) was over 100 µM. For the same compound, the GI50 (SF-295 CNS) was 20.8 µM, the TGI (SF-295 CNS) was 40.3 µM and the GI50 (U251 CNS) was 18.6 µM. It also gave a TGI (U251 CNS) of 35.1 µM, a GI50 (786-0 renal) of 17 µM and a TGI (786-0 renal) of 30.7 µM. For the same compound, the GI50 (OVCAR-8 ovarian) was over 42.1 µM, the TGI (OVCAR-8 ovarian) was over 57 µM and the GI50 (SR leukemia) was 26.3 µM. It also gave a TGI (SR leukemia) of over 100 µM, a GI50 (NCI-H226 lung) of 18.4 µM and a TGI (NCI-H226 lung) of 33.2 µM. For the same compound, the GI50 (DMS 273 small cell lung) was 22.7 µM, the TGI (DMS 273 small cell lung) was 58.5 µM and the GI50 (SF-268 CNS) was 23.2 µM. For the same compound, the TGI (SF-268 CNS) was over 56.6 µM, the GI50 (LXFL 529 NSCLC) was 10.1 µM and the TGI (LXFL 529 NSCLC) was 21.7 µM. It also gave a GI50 (T-47D breast) of 3.05 µM, a TGI (T-47D breast) of 13.5 µM and a GI50 (SNB-75 CNS) of 14.6 µM. For the same compound, the TGI (SNB-75 CNS) was 42.2 µM, the GI50 (UACC-257 melanoma) was 17.2 µM and the TGI (UACC-257 melanoma) was 34.6 µM. The GI50 (M14 melanoma) was 30.9 µM, the TGI (M14 melanoma) was over 59.4 µM and the GI50 (COLO 205 colon) was 22 µM. For the same compound, the TGI (COLO 205 colon) was over 54.8 µM, the GI50 (K-562 leukemia) was 9.4 µM and the TGI (K-562 leukemia) was 60.3 µM. The GI50 (PC-3 prostate) was over 100 µM, the TGI (PC-3 prostate) was over 100 µM and the GI50 (SW-620 colon) was 16.7 µM. The TGI (SW-620 colon) was 33.1 µM, the GI50 (NCI/ADR-RES ovarian) was over 100 µM and the TGI (NCI/ADR-RES ovarian) was over 100 µM. It also gave a GI50 (ACHN renal) of 17.1 µM, a TGI (ACHN renal) of 31.4 µM and a GI50 (MDA-MB-435) of 18.8 µM. For the same compound, the TGI (MDA-MB-435) was 42.4 µM, the GI50 (SK-MEL-28 melanoma) was 16.3 µM and the TGI (SK-MEL-28 melanoma) was 35.9 µM. The GI50 (DLD-1 colon) was 14.3 µM, the TGI (DLD-1 colon) was 29.6 µM and the GI50 (M19-MEL melanoma) was 17.1 µM. For the same compound, the TGI (M19-MEL melanoma) was 31.7 µM, the GI50 (A549 NSCLC) was over 100 µM and the TGI (A549 NSCLC) was over 100 µM. For the same compound, the GI50 (DU-145 prostate) was over 100 µM, the TGI (DU-145 prostate) was over 100 µM and the GI50 (OVCAR-4 ovarian) was 17.9 µM. For the same compound, the TGI (OVCAR-4 ovarian) was 35.3 µM, the GI50 (OVCAR-5 ovarian) was 27 µM and the TGI (OVCAR-5 ovarian) was over 61.6 µM.
